Measured values taken from US20110301137A1 (APEX LABORATORIES PRIVATE LIMITED, priority 2009, published 2011).
Read-outs that look alike come from different tables or passages of the source.

Assay type: physicochemical
Conditions: for degradation of the API: 3 months; for Initial (%): at time of receipt of the API from the supplier

degradation of the API	Initial (%) (Fusidic Acid BP)	Initial (%) (Sodium Fusidate BP)	Compound
7.7-11%	100.6		CC(=O)O[C@H]1C[C@@]2(C)[C@@H](C[C@@H](O)[C@H]3[C@@]4(C)CC[C@@H](O)[C@@H](C)[C@@H]4CC[C@@]32C)/C1=C(\CCC=C(C)C)C(=O)O [Fusidic Acid, Fusidic acid]
2.45-6%		98.7	CC(=O)O[C@H]1C[C@@]2(C)[C@@H](C[C@@H](O)[C@H]3[C@@]4(C)CC[C@@H](O)[C@@H](C)[C@@H]4CC[C@@]32C)/C1=C(\CCC=C(C)C)C(=O)O [Sodium Fusidate]
